In patent US11608325B2, “Polycrystalline form of dehydrophenylahistin-like compound, and manufacturing and purification method and application thereof” (Shenzhen Huahong Marine Biomedicine Co., Ltd., priority 2016, dated 2023):
Entries after “also recorded” stand apart in the source; their conditions may differ.

What was measured:
Format in all cases: physicochemical
[1] = Hygroscopicity test (Chinese Pharmacopoeia 2015 Volume IV, general rule 9103)
Experimental: The test was conducted according to the general rule 9103 of guiding principle for drug hygroscopicity test in Chinese Pharmacopoeia 2015 edition Volume IV, and the results are shown in Table 6.

[2] = High-humidity stress test (25° C., 90% RH); details: stress testing, high humidity (25° C., 90% RH)
Experimental: In accordance with the general rule 9001 of guiding principles for stability tests of APIs and preparations in the Chinese Pharmacopoeia 2015 edition Volume IV, stress testing of the δ-crystalline form of (3Z,6Z)-3-benzylidene-6-[(5-tert-butyl-1H-imidazol-4-yl)deuteromethylene]piperazine-2,5-dione was conducted under high temperature, high humidity and illumination conditions, the sample batch number was 20150401, and the results are shown in Tables 7, 8 and 9 below.

[3] = Transformation of other crystalline forms under humidity or in water; details: under 60% humidity condition

[2H]/C(c1nc[nH]c1C(C)(C)C)=c1/[nH]c(=O)/c(=C/c2ccccc2)[nH]c1=O [α-crystalline form, (3Z,6Z)-3-benzylidene-6-[(5-tert-butyl-1H-imidazol-4-yl)deuteromethylene]piperazine-2,5-dione]
Hygroscopicity [1]: certain hygroscopicity
stability / transformation under high-humidity condition [2]: easily transformed into the δ-crystalline form; also recorded: absorbs moisture easily to transform into δ-crystalline form
transformation of crystalline form [3]: may partially transform into δ-crystalline form
